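Where inhibition never reached the appropriate level, the endpoint shown equals the highest concentration tested. Otherwise, values were interpolated linearly from a five-concentration, 48-hour dose response in 96-well plates. Abbreviation: GI50, concentration required for 50% inhibition of growth. TGI is the concentration that stops growth completely.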
Columns and labels:
Assay in all cases: DTP human tumour cell line panel, 48 h
[1] = test system: M14 melanoma
[2] = test system: HOP-62 NSCLC
[3] = test system: SNB-75 CNS
[4] = test system: PC-3 prostate
[5] = test system: EKVX NSCLC
[6] = test system: LOX IMVI melanoma
[7] = test system: COLO 205 colon
[8] = test system: OVCAR-5 ovarian
[9] = test system: RPMI-8226 leukemia
[10] = test system: NCI/ADR-RES ovarian
[11] = test system: A549 NSCLC
[12] = test system: HCT-15 colon
[13] = test system: IGROV1 ovarian
[14] = test system: NCI-H522 lung
[15] = test system: MALME-3M melanoma
[16] = test system: 786-0 renal
[17] = test system: SF-268 CNS
[18] = test system: SN12C renal
[19] = test system: BT-549 breast
[20] = test system: SF-295 CNS
[21] = test system: CCRF-CEM leukemia
[22] = test system: UO-31 renal
[23] = test system: DU-145 prostate
[24] = test system: HOP-92 NSCLC
[25] = test system: NCI-H23 lung
[26] = test system: A498 renal
[27] = test system: TK-10 renal
[28] = test system: NCI-H460 lung
[29] = test system: HCT-116 colon

SMILES: CNC(=O)c1cncc(/C=C/c2ccccc2C)c1
- GI50 [1]: > 25 µM
- TGI [1]: > 25 µM
- GI50 [2]: > 25 µM
- TGI [2]: > 25 µM
- GI50 [3]: > 20.7 µM
- TGI [3]: > 25 µM
- GI50 [4]: > 25 µM
- TGI [4]: > 25 µM
- GI50 [5]: > 25 µM
- TGI [5]: > 25 µM
- GI50 [6]: > 25 µM
- TGI [6]: > 25 µM
- GI50 [7]: > 25 µM
- TGI [7]: > 25 µM
- GI50 [8]: > 25 µM
- TGI [8]: > 25 µM
- GI50 [9]: > 25 µM
- TGI [9]: > 25 µM
- GI50 [10]: > 25 µM
- TGI [10]: > 25 µM
- GI50 [11]: > 25 µM
- TGI [11]: > 25 µM
- GI50 [12]: > 25 µM
- TGI [12]: > 25 µM
- GI50 [13]: > 25 µM
- TGI [13]: > 25 µM
- GI50 [14]: > 25 µM
- TGI [14]: > 25 µM
- GI50 [15]: > 25 µM
- TGI [15]: > 25 µM
- GI50 [16]: > 25 µM
- TGI [16]: > 25 µM
- GI50 [17]: > 25 µM
- TGI [17]: > 25 µM
- GI50 [18]: > 25 µM
- TGI [18]: > 25 µM
- GI50 [19]: > 25 µM
- TGI [19]: > 25 µM
- GI50 [20]: > 25 µM
- TGI [20]: > 25 µM
- GI50 [21]: > 25 µM
- TGI [21]: > 25 µM
- GI50 [22]: > 25 µM
- TGI [22]: > 25 µM
- GI50 [23]: > 25 µM
- TGI [23]: > 25 µM
- GI50 [24]: > 25 µM
- TGI [24]: > 25 µM
- GI50 [25]: > 25 µM
- TGI [25]: > 25 µM
- GI50 [26]: 17.4 µM
- TGI [26]: > 25 µM
- GI50 [27]: > 25 µM
- TGI [27]: > 25 µM
- GI50 [28]: > 25 µM
- TGI [28]: > 25 µM
- GI50 [29]: > 25 µM
- TGI [29]: > 25 µM

Reference: PubChem BioAssay (NCI)
